In patent US20190225650A1, “PEPTIDOMIMETIC MACROCYCLES AND USE THEREOF IN REGULATING HIF1ALPHA” (AILERON THERAPEUTICS, INC., priority 2013, published 2019):
Bridge positions count the residues as written; N and C are the ends. Square brackets hold non-standard residues; d marks the D form. Peptide text beside a SMILES is read from it. R8 = C=CCCCCCC[C@@](C)(N)C(=O)O; S5 = C=CCCC[C@](C)(N)C(=O)O; Nle = CCCC[C@H](N)C(=O)O

Experiments:
[1] = molecular target: T1, flag-tagged HIF1α (AA 786-826) / His6-tagged p300 (AA 323-423) complex (Homo sapiens, UniProt Q09472); assay: HIF1α p300 displacement assay (TR FRET, +CHAPS); format: binding; conditions: read-out: IC50 (nM) (HIF1α_p300 Displacement + CHAPS)
T1 construct: His6-tagged p300 (AA 323-423); made in house; host or cells: E. coli (pETDuet vector)
In short: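 In this TR-FRET displacement format, peptides compete HIF1α C-terminal transactivation domain off p300-CH. They were preincubated 1 h at room temperature with 300 nM complex in HEPES pH 7.4/NaCl buffer with 7.5 mM CHAPS and 1 mM DTT. Anti-His-D2 (4 nM) and anti-Flag-K (0.5 μM) followed for 2 h, and a one-site fit of the fluorescence ratio gave IC50.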

HRE-bla ME-180 cells [2] = assay: Reporter gene assay (HRE-bla ME-180 HIF reporter, GeneBLAzer); format: cell-based, human; conditions: for EC50: 24 hour normoxia
In short: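 A FRET β-lactamase readout of HIF transcription was used. After compound treatment in 0.3% DMSO/media under normoxic conditions, 20 μl of 6× LiveBLAzer-FRET B/G (CCF4-AM) substrate was added. Plates sat 3 hr at room temperature in the dark and were read at 409 Ex/460Em and 409Ex/530Em on a Synergy 2. Inhibition was compared against DMSO vehicle controls, with chetomin as positive control.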

HRE-bla ME-180 cells [3] = assay: Cell proliferation assay (viability, MTT, 1% FBS); format: cell-based, human
In short: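 Viable cell number was measured with the CellTiter 96 (MTT) kit after compounds were applied for a 16 h normoxic (21% O2) pretreatment, followed by further normoxic or hypoxic (1% O2) culture. Cells: 2×10^4 ME-180 per well, Opti-MEM + 1% FBS, 0.5% DMSO vehicle.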

SMILES | IC50 [1] | EC50 (HRE-bla ME-180 cells [2]) | 18 h Avg % max inhibition at top conc (HIF Rptr-24 hrs normoxia) (μM) (HRE-bla ME-180 cells [2]) | Viability 1% FBS AVG (MTT V3-24 hr Normoxia) (μM) (HRE-bla ME-180 cells [3])
CCCC[C@H](NC(=O)[C@H](CC(C)C)NC(=O)[C@@H](NC(=O)[C@H](CCC(=O)O)NC(=O)[C@H](CCC(=O)O)NC(=O)[C@H](CC(=O)O)NC(=O)[C@@H](NC(=O)[C@H](Cc1ccccc1)NC(C)=O)[C@@H](C)CC)C(C)C)C(=O)N[C@@]1(C)CCCC=CCCC[C@@](C)(C(=O)N[C@@H](CCCC)C(=O)N[C@@H](C)C(=O)N[C@@H](Cc2ccccc2)C(N)=O)NC(=O)[C@H]([C@@H](C)CC)NC(=O)[C@H](C(C)C)NC(=O)[C@H](CC(C)C)NC1=O [SP-220] (Ac-FIDEEVL[Nle][S5]LVI[S5][Nle]AF-NH2; staple 9-13) | > 700 nM | > 30 µM | + (<10: +) | ++++ (≥30: ++++)
CCCC[C@H](NC(=O)[C@H](CCC(=O)O)NC(=O)[C@]1(C)CCCC=CCCCCCC[C@@](C)(NC(=O)[C@H](CCC(=O)O)NC(=O)[C@H](C)NC(=O)[C@@H](NC(=O)[C@H](Cc2ccccc2)NC(C)=O)[C@@H](C)CC)C(=O)N[C@@H](C(C)C)C(=O)N[C@@H](CC(C)C)C(=O)N[C@@H](CCCC)C(=O)N[C@@H](CO)C(=O)N[C@@H](CC(C)C)C(=O)N[C@@H](C(C)C)C(=O)N1)C(=O)N[C@@H](C)C(=O)N[C@@H](CC(C)C)C(=O)N[C@@H](CC(=O)O)C(=O)N[C@@H](C)C(=O)N[C@H](C(N)=O)[C@@H](C)CC [SP-192] (Ac-FIAE[R8]VL[Nle]SLV[S5]E[Nle]ALDAI-NH2; staple 5-12) | 200 to 400 nM | > 30 µM | ++ (≤10 but <25: ++) | ++++ (≥30: ++++)
CCCC[C@H](NC(=O)[C@H](Cc1ccccc1)NC(=O)[C@@H](NC(=O)[C@H](CCC(N)=O)NC(=O)[C@H](CCC(N)=O)NC(=O)[C@H](CC(N)=O)NC(=O)[C@@H](NC(=O)[C@H](Cc1ccccc1)NC(C)=O)[C@@H](C)CC)C(C)C)C(=O)N[C@@]1(C)CCCC=CCCC[C@@](C)(C(=O)N[C@@H](CCCC)C(=O)N[C@@H](C)C(=O)N[C@@H](CC(C)C)C(=O)N[C@@H](CC(C)C)C(N)=O)NC(=O)[C@H]([C@@H](C)CC)NC(=O)[C@H](C(C)C)NC(=O)[C@H](CC(C)C)NC1=O [SP-248] (Ac-FINQQVF[Nle][S5]LVI[S5][Nle]ALL-NH2; staple 9-13) | > 700 nM | > 30 µM | +++ (≤25 but <50: +++) | ++++ (≥30: ++++)
CCCC[C@H](NC(=O)[C@H](C)NC(=O)[C@]1(C)CCCC=CCCCCCC[C@@](C)(NC(=O)[C@H](CCC(=O)O)NC(=O)[C@H](CC(=O)O)NC(=O)[C@@H](NC(=O)[C@H](Cc2ccccc2)NC(C)=O)[C@@H](C)CC)C(=O)N[C@@H](C(C)C)C(=O)N[C@@H](CC(C)C)C(=O)N[C@@H](CCCC)C(=O)N[C@@H](CO)C(=O)N[C@@H](CC(C)C)C(=O)N[C@@H](C(C)C)C(=O)N1)C(=O)N[C@@H](C)C(=O)N[C@@H](CC(C)C)C(=O)N[C@@H](CC(=O)O)C(=O)N[C@@H](C)C(=O)N[C@H](C(N)=O)[C@@H](C)CC [SP-191] (Ac-FIDE[R8]VL[Nle]SLV[S5]A[Nle]ALDAI-NH2; staple 5-12) | 200 to 400 nM | > 30 µM | ++ (≤10 but <25: ++) | ++++ (≥30: ++++)
CC[C@H](C)[C@H](NC(=O)[C@H](CCCNC(=N)N)NC(=O)[C@H](CC(N)=O)NC(=O)[C@H](CC(C)C)NC(=O)[C@H](C)NC(=O)[C@H](CCSC)NC(=O)[C@]1(C)CCCC=CCCC[C@](C)(NC(=O)[C@H](CCSC)NC(=O)[C@H](CC(C)C)NC(=O)[C@@H](NC(=O)[C@H](C)NC(=O)[C@H](CCC(N)=O)NC(=O)[C@H](CC(N)=O)NC(=O)[C@@H](NC(=O)[C@H](Cc2ccccc2)NC(C)=O)[C@@H](C)CC)C(C)C)C(=O)N[C@@H](CC(C)C)C(=O)N[C@@H](C(C)C)C(=O)N[C@@H]([C@@H](C)CC)C(=O)N1)C(N)=O [SP-272] (Ac-FINQAVLM[S5]LVI[S5]MALNRI-NH2; staple 9-13) | > 700 nM | ≤ 5 µM | ++++ (≥50: ++++) | ++ (≤5 but <15: ++)

More lines, main results first:

IC50 [1] | EC50 (HRE-bla ME-180 cells [2]) | SMILES | 18 h Avg % max inhibition at top conc (HIF Rptr-24 hrs normoxia) (μM) (HRE-bla ME-180 cells [2]) | Viability 1% FBS AVG (MTT V3-24 hr Normoxia) (μM) (HRE-bla ME-180 cells [3])
≤ 200 nM | > 30 µM | CCCC[C@H](NC(=O)[C@H](CCC(=O)O)NC(=O)[C@]1(C)CCCC=CCCCCCC[C@@](C)(NC(=O)[C@H](CCC(=O)O)NC(=O)[C@H](CC(=O)O)NC(=O)[C@@H](NC(=O)[C@H](CC(N)=O)NC(=O)[C@@H](NC(=O)[C@]2(C)CCCC=CCCCCCC[C@@](C)(NC(=O)[C@H](C)NC(=O)CNC(=O)[C@H](CCC(N)=O)NC(=O)[C@H](CC(C)C)NC(=O)[C@H](CC(C)C)NC(C)=O)C(=O)N[C@@H](CC(C)C)C(=O)N[C@@H](CC(C)C)C(=O)N[C@@H](CCCNC(=N)N)C(=O)N[C@@H](C)C(=O)N[C@@H](CC(C)C)C(=O)N[C@@H](CC(=O)O)C(=O)N2)C(C)C)[C@@H](C)CC)C(=O)N[C@@H](C(C)C)C(=O)N[C@@H](CC(C)C)C(=O)N[C@@H](CCCC)C(=O)N[C@@H](CO)C(=O)N[C@@H](CC(C)C)C(=O)N[C@@H](C(C)C)C(=O)N1)C(N)=O [SP-353] (Ac-LLQGA[R8]LLRALD[S5]VNIDE[R8]VL[Nle]SLV[S5]E[Nle]-NH2; staple 6-13, 19-26) | +++ (≤25 but <50: +++) | ++++ (≥30: ++++)
400 to 700 nM | 5 to 15 µM | CC[C@H](C)[C@H](NC(=O)[C@H](CCCNC(=N)N)NC(=O)[C@H](CC(=O)O)NC(=O)[C@H](CC(C)C)NC(=O)[C@H](C)NC(=O)[C@H](CCSC)NC(=O)[C@]1(C)CCCC=CCCC[C@](C)(NC(=O)[C@H](CCSC)NC(=O)[C@H](CC(C)C)NC(=O)[C@@H](NC(=O)[C@H](Cc2c[nH]cn2)NC(=O)[C@H](CCC(=O)O)NC(=O)[C@H](CC(=O)O)NC(=O)[C@@H](NC(=O)[C@H](Cc2ccccc2)NC(C)=O)[C@@H](C)CC)C(C)C)C(=O)N[C@@H](CC(C)C)C(=O)N[C@@H](C(C)C)C(=O)N[C@@H]([C@@H](C)CC)C(=O)N1)C(N)=O [SP-284] (Ac-FIDEHVLM[S5]LVI[S5]MALDRI-NH2; staple 9-13) | +++ (≤25 but <50: +++) | ++++ (≥30: ++++)
≤ 200 nM | > 30 µM | CCCC[C@H](NC(=O)[C@]1(C)CCCC=CCCC[C@](C)(NC(=O)[C@H](CCCC)NC(=O)[C@H](CC(C)C)NC(=O)[C@@H](NC(=O)[C@H](CCC(=O)O)NC(=O)[C@H](CCC(=O)O)NC(=O)[C@H](C)NC(=O)[C@@H](NC(=O)[C@H](CC(N)=O)NC(=O)[C@@H](NC(=O)[C@]2(C)CCCC=CCCCCCC[C@@](C)(NC(=O)[C@H](CCC(=O)O)NC(=O)CNC(=O)[C@H](CCC(N)=O)NC(=O)[C@H](CC(C)C)NC(=O)[C@H](CC(C)C)NC(C)=O)C(=O)N[C@@H](CC(C)C)C(=O)N[C@@H](CC(C)C)C(=O)N[C@@H](CCCNC(=N)N)C(=O)N[C@@H](C)C(=O)N[C@@H](CC(C)C)C(=O)N[C@@H](CC(=O)O)C(=O)N2)C(C)C)[C@@H](C)CC)C(C)C)C(=O)N[C@@H](CC(C)C)C(=O)N[C@@H](C(C)C)C(=O)N[C@@H]([C@@H](C)CC)C(=O)N1)C(N)=O [SP-349] (Ac-LLQGE[R8]LLRALD[S5]VNIAEEVL[Nle][S5]LVI[S5][Nle]-NH2; staple 6-13, 23-27) | +++ (≤25 but <50: +++) | ++++ (≥30: ++++)
> 700 nM | > 30 µM | CCCC[C@H](NC(=O)[C@H](CC(C)C)NC(=O)[C@@H](NC(=O)[C@H](CCC(=O)O)NC(=O)[C@H](CCC(=O)O)NC(=O)[C@H](CC(=O)O)NC(=O)[C@@H](NC(=O)[C@H](CC(N)=O)NC(=O)[C@@H](NC(=O)[C@]1(C)CCCC=CCCC[C@](C)(NC(=O)[C@H](CC(C)C)NC(=O)[C@H](CC(C)C)NC(=O)[C@H](CCC(=O)O)NC(=O)[C@H](CCC(=O)O)NC(=O)CNC(=O)[C@H](CCC(N)=O)NC(=O)[C@H](CC(C)C)NC(=O)[C@H](CC(C)C)NC(C)=O)C(=O)N[C@@H](C)C(=O)N[C@@H](CC(C)C)C(=O)N[C@@H](CC(=O)O)C(=O)N1)C(C)C)[C@@H](C)CC)C(C)C)C(=O)N[C@@]1(C)CCCC=CCCC[C@@](C)(C(=O)N[C@@H](CCCC)C(=O)NCC(N)=O)NC(=O)[C@H]([C@@H](C)CC)NC(=O)[C@H](C(C)C)NC(=O)[C@H](CC(C)C)NC1=O [SP-340] (Ac-LLQGEELL[S5]ALD[S5]VNIDEEVL[Nle][S5]LVI[S5][Nle]G-NH2; staple 9-13, 23-27) | ++ (≤10 but <25: ++) | ++++ (≥30: ++++)
